These results are taken from patent publication US9234018B2, “Compositions and methods for the treatment of VprBP-related cancers” (University of Southern California, priority 2013, dated 2016).

pIC50: −log10 of the molar value.

For one assay, the target named is DYRK1 (Homo sapiens, UniProt Q13627). Kind of assay: Kinase selectivity panel. Format: biochemical.
The target in another assay is LCK (Homo sapiens, UniProt P06239). Kind of assay: Kinase selectivity panel. Format: biochemical.
The test system of the next assay is MLC cells. Briefly: Cell viability by MTT assay in normal cells. Format: cell-based. Conditions: concentrations up to 5 mM, 24 h; cells lacking VprBP-mediated H2AT120p. On the procedure: FIGS. 8A-8I show characterization of B32B3 as a small-molecule VprBP kinase inhibitor, related to FIG. 4. (FIG. 8A) DU145 cells were infected with mock lentiviruse, VprBP-expressing shRNA lentivirus or Flag-VprBP-expressing lentivirus, and treated with the indicated concentrations of B32B3 for 24 h. Changes in H2AT120p as the results of B32B3 treatment were determined by the quantitative estimates of Western band intensity. Results represent the means±S.D. of three independent experiments. (FIG. 8B) DU145 cells were treated with the indicated concentrations of B32B3 and B20H6 for 72 h. Cell viability was measured by the MTT assay and was normalized to cells not exposed to the compounds. Data represent the means±S.D. of three independent experiments. […] (FIG. 8D) MLC cells were treated with B32B3 at the indicated doses for 24 h, and cell viability was assessed by MTT assay. […] (FIG. 8E) VprBP-mediated H2AT120p was analyzed in the presence of increasing concentrations of ATP and B32B3. (FIG. 8F) Body weights of vehicle or B32B3-treated mice were monitored during the treatment period. […] The stability of B32B3 in plasma was determined by LC-MS/MS at the indicated time points. […] Blood samples were collected at the indicated time points, and the concentration of B32B3 in plasma was analyzed by HPLC coupled mass spectrophotometry. […]
On the technique in general: Tetrazolium assays rely on reduction of a dye to a coloured formazan, in cell work by metabolically active cells.

A further assay has as its target HCK (Homo sapiens, UniProt P08631). Kind of assay: Kinase selectivity panel. The format is biochemical.
In a further assay the target is CSNK1D (Homo sapiens, UniProt P48730). Briefly: Kinase selectivity panel. The format is biochemical.
Chain of CSNK1D (P48730 whole entry): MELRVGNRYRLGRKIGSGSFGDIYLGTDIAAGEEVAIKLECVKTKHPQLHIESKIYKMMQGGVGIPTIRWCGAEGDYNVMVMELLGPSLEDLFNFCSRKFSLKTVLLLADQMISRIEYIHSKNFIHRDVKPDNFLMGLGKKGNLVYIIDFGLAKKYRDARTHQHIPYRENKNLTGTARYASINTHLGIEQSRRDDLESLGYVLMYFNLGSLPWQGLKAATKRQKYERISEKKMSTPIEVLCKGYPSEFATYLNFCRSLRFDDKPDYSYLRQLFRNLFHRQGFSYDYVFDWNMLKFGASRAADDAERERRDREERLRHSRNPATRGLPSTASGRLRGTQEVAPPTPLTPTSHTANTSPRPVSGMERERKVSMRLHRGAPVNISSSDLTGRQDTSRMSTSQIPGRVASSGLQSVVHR
Another assay has as its target GSK3β (Homo sapiens, UniProt P49841). Briefly: Kinase selectivity panel. The format is biochemical.
Another assay addresses AURKA (Homo sapiens, UniProt O14965). Briefly: Kinase selectivity panel. Format: biochemical.
Another assay has as its target CDK7 (Homo sapiens, UniProt P50613). Briefly: Kinase selectivity panel. The format is biochemical.
The next assay deals with CHK1 (Homo sapiens, UniProt O14757). Briefly: Kinase selectivity panel. The format is biochemical.
Chain of CHK1 (O14757 whole entry): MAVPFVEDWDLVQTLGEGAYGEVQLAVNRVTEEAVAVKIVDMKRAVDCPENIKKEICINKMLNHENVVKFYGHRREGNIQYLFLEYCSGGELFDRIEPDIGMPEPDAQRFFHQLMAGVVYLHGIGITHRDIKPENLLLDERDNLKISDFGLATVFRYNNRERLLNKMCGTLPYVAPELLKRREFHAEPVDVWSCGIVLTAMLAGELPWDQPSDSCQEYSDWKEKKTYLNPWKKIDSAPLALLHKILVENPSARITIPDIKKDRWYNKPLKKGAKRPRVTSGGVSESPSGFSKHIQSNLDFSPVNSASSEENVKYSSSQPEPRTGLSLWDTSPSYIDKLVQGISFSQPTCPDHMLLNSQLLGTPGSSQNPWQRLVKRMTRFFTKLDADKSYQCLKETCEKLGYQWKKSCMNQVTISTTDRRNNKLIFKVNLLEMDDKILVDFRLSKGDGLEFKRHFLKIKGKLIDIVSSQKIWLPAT
The target of another assay is VRK2 (Homo sapiens, UniProt Q86Y07). Briefly: Kinase selectivity panel. Format: biochemical.
Chain of VRK2 (Q86Y07 whole entry): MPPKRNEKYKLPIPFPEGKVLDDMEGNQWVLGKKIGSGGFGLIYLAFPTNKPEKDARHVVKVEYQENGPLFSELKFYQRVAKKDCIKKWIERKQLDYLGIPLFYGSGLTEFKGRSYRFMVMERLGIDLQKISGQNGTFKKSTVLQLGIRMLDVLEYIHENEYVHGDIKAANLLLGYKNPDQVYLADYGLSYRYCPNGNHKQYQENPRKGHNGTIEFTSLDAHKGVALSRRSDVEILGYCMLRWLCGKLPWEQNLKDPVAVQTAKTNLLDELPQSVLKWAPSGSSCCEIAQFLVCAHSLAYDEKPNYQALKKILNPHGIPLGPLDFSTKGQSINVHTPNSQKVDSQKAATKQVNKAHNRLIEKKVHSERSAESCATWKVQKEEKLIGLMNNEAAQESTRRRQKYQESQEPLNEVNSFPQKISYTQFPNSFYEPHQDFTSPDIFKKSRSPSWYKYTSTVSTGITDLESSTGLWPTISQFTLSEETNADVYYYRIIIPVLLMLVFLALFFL
A further assay has as its target CDK9 (Homo sapiens, UniProt P50750). Briefly: Kinase selectivity panel. Format: biochemical.
The next assay relates to DU145 cells. Kind of assay: Cell proliferation (MTT) and soft agar colony formation. The format is cell-based, human. Conditions: MTT 72 h and soft agar colonies. How it is done:
Cell proliferation was assessed by the 3-(4,5-dimethylthiazol-2-yl)-2,5-diphenyltetrazolium bromide (MTT) assay as previously described (Kim, K. et al. (2012) Mol. Cell Biol. 32:783-796). To evaluate IC50 of compound B32B3 and B20H6, DU145 cells were treated with various concentrations (0.001, 0.005, 0.01, 0.05, 0.1, 1, 5, 10, and 20 μM) of compounds for 72 h and viability was measured by MTT assays. For soft agar colony formation assays, DU145 cells were treated with B32B3 (0.5, 1, and 3 μM). Cells were suspended in semisolid medium (DMEM 10% FBS plus 0.3% ultra pure noble agar) at concentrations of 2×10^5 cells/ml, added over a layer of 0.6% agar in RPMI on 35 mm plate and incubated for an additional 21 days. The colonies in each well were stained with 0.005% crystal violet in 20% ethanol, counted and photographed. All assays were run in triplicate, and results presented are the average of three individual experiments.

The next assay relates to H2AT120p in DU145 cells. Kind of assay: Cellular H2AT120p by western blotting and immunostaining. Format: cell-based, human. How it is done:
To this end, Applicants' inhouse small-molecule library of 5,000 compounds was screened. […] To evaluate their cellular effects, DU145 cells were treated with the compounds in the concentration range of […] for 24 hr. […] Thus, although Applicants cannot exclude the possibility that other kinases that were not included in the selectivity screen might be affected, B32B3 can be defined as a highly specific VprBP inhibitor at present.
The levels of VprBP and H2AT120p in tumors tissues were determined in FDA human tumor organ tissue microarray, which includes 16 types of organ cancer with matched or unmatched adjacent normal tissue (US Biomax, Inc). The formalin-fixed, paraffin-embedded sections were blocked by treating with blocking reagent (50 mM Tris-HCl, pH 7.5, 150 mM NaCl, 0.3% Triton X-100, and 5% normal goat serum) for 30 min at room temperature and incubated with VprBP and H2AT120p antibodies at 4° C. overnight. Immunodetection was performed using ABC reagent (Vectorstain). DAB (Vector Lab) was used for color development and hematoxylin (Sigma) was used for counterstaining. The intensity and distribution patterns of staining were evaluated by semiquantitative immunohistochemical assessment. The intensity of staining was graded from − to +++ (−, no staining; +, weak staining; ++, moderate staining; and +++, strong staining) The distribution of staining was classified from 0 to 3 (0, 0-20%; 1, 21-50%; 2, 51-80%; 3, 81-100%). For immunofluorescence of DU145 cells, cells were treated with DMSO or B32B3 (0.5 μM) for 24 h and fixed with 4% paraformaldehyde for 15 min. The corresponding samples were permeabilized with 0.3% Triton X-100 for 15 min and immunostained with H2AT120p antibody.

Chain of LCK (P06239 whole entry): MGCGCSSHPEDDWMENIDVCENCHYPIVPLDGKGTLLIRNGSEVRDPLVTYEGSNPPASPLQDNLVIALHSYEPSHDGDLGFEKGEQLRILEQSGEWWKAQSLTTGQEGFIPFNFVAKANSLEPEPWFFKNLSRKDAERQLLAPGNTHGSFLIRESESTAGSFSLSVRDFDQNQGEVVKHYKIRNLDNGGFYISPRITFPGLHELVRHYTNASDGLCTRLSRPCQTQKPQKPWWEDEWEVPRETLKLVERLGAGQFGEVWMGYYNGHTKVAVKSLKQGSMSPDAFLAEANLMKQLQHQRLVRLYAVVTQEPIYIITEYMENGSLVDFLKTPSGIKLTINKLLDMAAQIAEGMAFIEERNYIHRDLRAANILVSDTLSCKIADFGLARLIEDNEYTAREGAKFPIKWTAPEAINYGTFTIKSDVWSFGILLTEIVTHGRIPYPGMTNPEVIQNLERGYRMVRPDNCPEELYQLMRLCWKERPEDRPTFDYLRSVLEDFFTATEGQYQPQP
Chain of GSK3β (P49841 whole entry): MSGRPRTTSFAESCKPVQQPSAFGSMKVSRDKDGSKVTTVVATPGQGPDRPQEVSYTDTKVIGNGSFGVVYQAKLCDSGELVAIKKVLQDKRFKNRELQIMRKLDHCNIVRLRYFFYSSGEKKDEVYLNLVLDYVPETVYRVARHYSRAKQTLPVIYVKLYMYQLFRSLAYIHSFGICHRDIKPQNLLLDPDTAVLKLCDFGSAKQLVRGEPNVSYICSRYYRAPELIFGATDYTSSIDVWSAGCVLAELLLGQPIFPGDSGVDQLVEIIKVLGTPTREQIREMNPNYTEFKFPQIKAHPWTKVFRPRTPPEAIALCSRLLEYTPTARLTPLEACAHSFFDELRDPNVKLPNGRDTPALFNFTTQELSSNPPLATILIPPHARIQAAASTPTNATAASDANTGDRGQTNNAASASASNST
Chain of AURKA (O14965 whole entry): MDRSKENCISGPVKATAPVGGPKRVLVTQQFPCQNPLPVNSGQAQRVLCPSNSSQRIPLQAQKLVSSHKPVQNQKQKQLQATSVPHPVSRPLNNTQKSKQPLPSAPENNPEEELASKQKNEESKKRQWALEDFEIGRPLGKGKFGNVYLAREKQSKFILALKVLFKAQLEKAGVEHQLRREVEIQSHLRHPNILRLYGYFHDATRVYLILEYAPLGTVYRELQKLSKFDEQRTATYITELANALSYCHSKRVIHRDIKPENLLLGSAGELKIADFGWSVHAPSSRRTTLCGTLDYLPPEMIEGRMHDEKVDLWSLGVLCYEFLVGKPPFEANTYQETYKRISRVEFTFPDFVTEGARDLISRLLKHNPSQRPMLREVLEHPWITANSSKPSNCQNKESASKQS
Chain of CDK7 (P50613 whole entry): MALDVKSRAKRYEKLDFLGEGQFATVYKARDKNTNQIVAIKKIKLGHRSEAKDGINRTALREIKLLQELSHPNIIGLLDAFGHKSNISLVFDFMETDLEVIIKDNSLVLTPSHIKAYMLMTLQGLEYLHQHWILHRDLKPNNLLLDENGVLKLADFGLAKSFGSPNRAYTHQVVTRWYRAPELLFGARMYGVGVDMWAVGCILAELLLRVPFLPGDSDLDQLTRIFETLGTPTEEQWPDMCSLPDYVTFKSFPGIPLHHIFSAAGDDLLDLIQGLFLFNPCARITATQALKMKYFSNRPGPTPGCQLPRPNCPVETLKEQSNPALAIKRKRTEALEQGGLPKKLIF
Chain of CDK7 (P51946 whole entry partner): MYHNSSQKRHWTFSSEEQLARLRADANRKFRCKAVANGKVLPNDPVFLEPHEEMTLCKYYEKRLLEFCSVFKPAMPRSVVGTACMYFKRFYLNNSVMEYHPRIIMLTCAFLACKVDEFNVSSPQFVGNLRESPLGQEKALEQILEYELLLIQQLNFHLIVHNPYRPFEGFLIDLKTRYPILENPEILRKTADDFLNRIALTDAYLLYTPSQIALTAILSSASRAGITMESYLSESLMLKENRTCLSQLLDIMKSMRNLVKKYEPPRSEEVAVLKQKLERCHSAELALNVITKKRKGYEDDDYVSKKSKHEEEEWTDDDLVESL
Chain of CDK7 (P51948 whole entry partner): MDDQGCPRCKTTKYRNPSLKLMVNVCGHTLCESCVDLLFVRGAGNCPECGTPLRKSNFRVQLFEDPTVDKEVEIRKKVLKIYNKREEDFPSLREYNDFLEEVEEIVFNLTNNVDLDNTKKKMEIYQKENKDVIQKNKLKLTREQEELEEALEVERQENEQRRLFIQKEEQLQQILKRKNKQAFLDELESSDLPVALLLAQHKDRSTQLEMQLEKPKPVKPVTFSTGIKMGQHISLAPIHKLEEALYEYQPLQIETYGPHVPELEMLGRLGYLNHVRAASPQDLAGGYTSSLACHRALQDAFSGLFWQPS
Chain of HCK (P08631 whole entry): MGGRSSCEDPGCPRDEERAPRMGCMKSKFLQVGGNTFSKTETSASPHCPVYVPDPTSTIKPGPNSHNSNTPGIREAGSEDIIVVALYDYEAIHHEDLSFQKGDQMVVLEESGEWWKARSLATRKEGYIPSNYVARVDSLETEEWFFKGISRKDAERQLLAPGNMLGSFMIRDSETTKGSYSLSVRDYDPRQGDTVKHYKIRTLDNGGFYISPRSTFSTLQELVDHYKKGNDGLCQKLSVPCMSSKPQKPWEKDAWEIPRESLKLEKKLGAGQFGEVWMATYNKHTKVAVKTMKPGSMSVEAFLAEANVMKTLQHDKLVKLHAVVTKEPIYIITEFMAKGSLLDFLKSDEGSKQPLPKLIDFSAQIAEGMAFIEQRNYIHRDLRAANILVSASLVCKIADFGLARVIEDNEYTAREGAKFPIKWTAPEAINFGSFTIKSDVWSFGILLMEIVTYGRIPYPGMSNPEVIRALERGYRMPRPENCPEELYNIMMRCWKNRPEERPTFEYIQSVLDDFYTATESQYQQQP

A word on the pIC50: it is −log10 of the IC50, conventionally taken in molar units. Take `c1ccc2c(CNNc3ncnc4sc5c(c34)CCCC5)c[nH]c2c1` [B32B3]: the pIC50 against DYRK1, on LCK, against HCK, on CSNK1D, against GSK3β and against AURKA was < 5.00 throughout. In addition, the negative-log IC50 (pIC50) at CDK7 is < 5.00; at CHK1, < 5.00; on VRK2, < 5.00; against CDK9, < 5.00; with H2AT120p in DU145 cells (Homo sapiens, DU-145, DU145 cells, 24 hr, 0-5 mM, read-out: IC50 for inhibition of H2AT120p), 6.30. For the same molecule, the “Effect on proliferation of MLC cells” value in the assay with MLC cells is given as “minimally antagonized”. Besides, the “Effect on cell proliferation / cell growth” value in the assay on DU145 cells is reported as “inhibition of cell proliferation”. Also, the “Potency in cells overexpressing VprBP” value in the assay with H2AT120p in DU145 cells (DU145 cells overexpressing VprBP, 24 h) is “considerably less potent”. In addition, the “Decrease in IC50 (H2AT120p) upon knockdown of VprBP” value with H2AT120p in DU145 cells (VprBP-knockdown DU145 cells, 24 h) is given as “circa 2 fold”.
